From PubChem BioAssay (NCI)
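In this assay, cells in 96-well plates receive the compound at five concentrations for 48 hours. Endpoints are linearly interpolated between the surrounding concentrations. TGI marks complete inhibition of growth.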

Columns and labels:
Assay in all cases: NCI anticancer screen, dose series, 48 h
[1] = test system: SF-295 CNS
[2] = test system: UACC-62 melanoma
[3] = test system: LOX IMVI melanoma
[4] = test system: NCI-H226 lung
[5] = test system: OVCAR-5 ovarian
[6] = test system: M14 melanoma
[7] = test system: NCI/ADR-RES ovarian
[8] = test system: MDA-MB-231 breast
[9] = test system: HT29 colon
[10] = test system: OVCAR-8 ovarian
[11] = test system: MOLT-4 leukemia
[12] = test system: U251 CNS
[13] = test system: HOP-62 NSCLC
[14] = test system: HCT-15 colon
[15] = test system: A498 renal
[16] = test system: UO-31 renal
[17] = test system: K-562 leukemia
[18] = test system: ACHN renal
[19] = test system: UACC-257 melanoma
[20] = test system: EKVX NSCLC
[21] = test system: OVCAR-3 ovarian
[22] = test system: SF-539 CNS
[23] = test system: SN12C renal
[24] = test system: SNB-75 CNS
[25] = test system: SK-MEL-5 melanoma
[26] = test system: SR leukemia
[27] = test system: KM12 colon
[28] = test system: NCI-H522 lung
[29] = test system: T-47D breast
[30] = test system: NCI-H23 lung
[31] = test system: TK-10 renal
[32] = test system: SK-OV-3 ovarian
[33] = test system: SNB-19 CNS
[34] = test system: CCRF-CEM leukemia
[35] = test system: A549 NSCLC
[36] = test system: RPMI-8226 leukemia
[37] = test system: HOP-92 NSCLC
[38] = test system: MDA-N
[39] = test system: MCF7 breast
[40] = test system: HCC-2998 colon
[41] = test system: SK-MEL-2 melanoma
[42] = test system: BT-549 breast
[43] = test system: HCT-116 colon
[44] = test system: MDA-MB-435
[45] = test system: NCI-H460 lung
[46] = test system: DU-145 prostate
[47] = test system: IGROV1 ovarian
[48] = test system: CAKI-1 renal
[49] = test system: SK-MEL-28 melanoma
[50] = test system: SF-268 CNS
[51] = test system: OVCAR-4 ovarian
[52] = test system: MALME-3M melanoma
[53] = test system: 786-0 renal
[54] = test system: COLO 205 colon
[55] = test system: SW-620 colon
[56] = test system: HS 578T breast
[57] = test system: HL-60(TB) leukemia
[58] = test system: RXF 393 renal
[59] = test system: PC-3 prostate

CCOC(=O)CCC(NC(=O)c1ccc(OCc2ccc3nc(-c4ccccc4)c(Cl)nc3c2)cc1)C(=O)OCC (centres undefined)
TGI [1]: > 31.6 µM | TGI [2]: > 31.6 µM | TGI [3]: > 100 µM | TGI [4]: 68.8 µM | TGI [5]: > 31.6 µM | TGI [6]: > 31.6 µM | TGI [7]: > 31.6 µM | TGI [8]: > 67.9 µM | TGI [9]: > 31.6 µM | TGI [10]: 25.3 µM | TGI [11]: > 31.6 µM | TGI [12]: > 31.6 µM | TGI [13]: > 31.6 µM | TGI [14]: > 31.6 µM | TGI [15]: 77.4 µM | TGI [16]: > 31.6 µM | TGI [17]: > 100 µM | TGI [18]: > 31.6 µM | TGI [19]: > 31.6 µM | TGI [20]: > 31.6 µM | TGI [21]: > 31.6 µM | TGI [22]: 28.7 µM | TGI [23]: > 100 µM | TGI [24]: 30.3 µM | TGI [25]: > 31.6 µM | TGI [26]: > 31.6 µM | TGI [27]: > 31.6 µM | TGI [28]: > 31.6 µM | TGI [29]: > 31.6 µM | TGI [30]: > 31.6 µM | TGI [31]: > 31.6 µM | TGI [32]: > 100 µM | TGI [33]: 31.1 µM | TGI [34]: > 31.6 µM | TGI [35]: > 100 µM | TGI [36]: > 31.6 µM | TGI [37]: 25.5 µM | TGI [38]: > 100 µM | TGI [39]: > 31.6 µM | TGI [40]: > 31.6 µM | TGI [41]: > 100 µM | TGI [42]: > 31.6 µM | TGI [43]: > 31.6 µM | TGI [44]: > 31.6 µM | TGI [45]: > 31.6 µM | TGI [46]: > 31.6 µM | TGI [47]: > 31.6 µM | TGI [48]: > 100 µM | TGI [49]: > 31.6 µM | TGI [50]: 28.1 µM | TGI [51]: > 31.6 µM | TGI [52]: > 100 µM | TGI [53]: > 31.6 µM | TGI [54]: > 100 µM | TGI [55]: > 31.6 µM | TGI [56]: > 31.6 µM | TGI [57]: > 31.6 µM | TGI [58]: 8.6 µM

CCC(=O)Nc1ccc(N2C(=O)C(Cl)C2c2ccc(SC)cc2)cc1 (centres undefined)
TGI [1]: > 100 µM | TGI [2]: > 100 µM | TGI [3]: > 100 µM | TGI [4]: 98.1 µM | TGI [5]: > 100 µM | TGI [6]: > 100 µM | TGI [7]: > 100 µM | TGI [9]: > 100 µM | TGI [10]: > 100 µM | TGI [11]: > 100 µM | TGI [13]: > 100 µM | TGI [14]: > 100 µM | TGI [15]: > 100 µM | TGI [16]: > 100 µM | TGI [17]: > 100 µM | TGI [18]: > 100 µM | TGI [19]: > 100 µM | TGI [20]: > 100 µM | TGI [21]: > 100 µM | TGI [22]: > 100 µM | TGI [23]: > 100 µM | TGI [24]: > 100 µM | TGI [25]: 79.8 µM | TGI [26]: > 100 µM | TGI [27]: > 100 µM | TGI [28]: > 100 µM | TGI [29]: > 100 µM | TGI [59]: > 100 µM | TGI [30]: > 100 µM | TGI [32]: > 100 µM | TGI [33]: > 100 µM | TGI [34]: > 100 µM | TGI [35]: > 100 µM | TGI [36]: > 100 µM | TGI [37]: > 100 µM | TGI [38]: > 100 µM | TGI [39]: > 100 µM | TGI [40]: 96.9 µM | TGI [41]: > 100 µM | TGI [42]: > 100 µM | TGI [43]: > 100 µM | TGI [44]: > 100 µM | TGI [45]: > 100 µM | TGI [46]: > 100 µM | TGI [47]: > 100 µM | TGI [48]: > 100 µM | TGI [49]: > 100 µM | TGI [50]: > 100 µM | TGI [51]: > 100 µM | TGI [52]: > 100 µM | TGI [53]: > 100 µM | TGI [54]: > 100 µM | TGI [55]: > 100 µM | TGI [56]: > 100 µM | TGI [57]: > 100 µM | TGI [58]: > 100 µM
